Patent US10676504B2 (Colorado State University Research Foundation, priority 2015, dated 2020)
Read-outs that look alike come from different tables or passages of the source. Blank lines part the entries; values can stand above or below the compound they belong to.

Assays:
[1] = test system: 797 NUT midline carcinoma cell line; test: 797 cell viability (ATPLite); assay type: cell-based; conditions: Table P2; 48 hours incubation
Protocol: (§1) Addition of compound was performed with a JANUS Workstation (PerkinElmer Life and Analytical Sciences) using a 384-well pinhead tool that is calibrated to deliver 100 nL drug/well. After 48 hours of incubation with compound, cells were analyzed for cell viability using the ATPLite (Perkin Elmer) luminescent assay kit per the manufacturer's instructions. […] Replicate measurements were analyzed with respect to dose and estimates of IC50 were calculated by logistic regression (GraphPad Prism).

[2] = target: T1, HDAC8 (Homo sapiens, UniProt Q9BY41); test: HDAC biochemical assay of P5-P12 (Table P1); design: The recombinant, full-length HDAC protein (BPS Biosciences) was incubated; purchased BPS Biosciences; conditions: Table P1
T1 sequence (Q9BY41 1-377): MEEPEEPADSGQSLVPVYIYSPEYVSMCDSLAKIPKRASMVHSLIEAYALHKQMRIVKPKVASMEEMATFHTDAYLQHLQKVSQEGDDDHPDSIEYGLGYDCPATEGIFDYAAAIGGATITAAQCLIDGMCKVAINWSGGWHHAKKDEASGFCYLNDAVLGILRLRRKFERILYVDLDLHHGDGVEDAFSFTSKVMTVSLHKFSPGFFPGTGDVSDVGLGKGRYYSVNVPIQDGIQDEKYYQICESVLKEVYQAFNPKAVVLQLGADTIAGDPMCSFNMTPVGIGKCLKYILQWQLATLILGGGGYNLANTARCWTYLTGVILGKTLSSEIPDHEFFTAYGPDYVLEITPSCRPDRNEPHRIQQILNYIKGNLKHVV

[3] = target: T2, HDAC6 (Homo sapiens, UniProt Q9UBN7); test: HDAC biochemical assay of P5-P12 (Table P1); design: The recombinant, full-length HDAC protein (BPS Biosciences) was incubated; purchased BPS Biosciences; conditions: 200 μM TCEP
T2 sequence (Q9UBN7 1-1215): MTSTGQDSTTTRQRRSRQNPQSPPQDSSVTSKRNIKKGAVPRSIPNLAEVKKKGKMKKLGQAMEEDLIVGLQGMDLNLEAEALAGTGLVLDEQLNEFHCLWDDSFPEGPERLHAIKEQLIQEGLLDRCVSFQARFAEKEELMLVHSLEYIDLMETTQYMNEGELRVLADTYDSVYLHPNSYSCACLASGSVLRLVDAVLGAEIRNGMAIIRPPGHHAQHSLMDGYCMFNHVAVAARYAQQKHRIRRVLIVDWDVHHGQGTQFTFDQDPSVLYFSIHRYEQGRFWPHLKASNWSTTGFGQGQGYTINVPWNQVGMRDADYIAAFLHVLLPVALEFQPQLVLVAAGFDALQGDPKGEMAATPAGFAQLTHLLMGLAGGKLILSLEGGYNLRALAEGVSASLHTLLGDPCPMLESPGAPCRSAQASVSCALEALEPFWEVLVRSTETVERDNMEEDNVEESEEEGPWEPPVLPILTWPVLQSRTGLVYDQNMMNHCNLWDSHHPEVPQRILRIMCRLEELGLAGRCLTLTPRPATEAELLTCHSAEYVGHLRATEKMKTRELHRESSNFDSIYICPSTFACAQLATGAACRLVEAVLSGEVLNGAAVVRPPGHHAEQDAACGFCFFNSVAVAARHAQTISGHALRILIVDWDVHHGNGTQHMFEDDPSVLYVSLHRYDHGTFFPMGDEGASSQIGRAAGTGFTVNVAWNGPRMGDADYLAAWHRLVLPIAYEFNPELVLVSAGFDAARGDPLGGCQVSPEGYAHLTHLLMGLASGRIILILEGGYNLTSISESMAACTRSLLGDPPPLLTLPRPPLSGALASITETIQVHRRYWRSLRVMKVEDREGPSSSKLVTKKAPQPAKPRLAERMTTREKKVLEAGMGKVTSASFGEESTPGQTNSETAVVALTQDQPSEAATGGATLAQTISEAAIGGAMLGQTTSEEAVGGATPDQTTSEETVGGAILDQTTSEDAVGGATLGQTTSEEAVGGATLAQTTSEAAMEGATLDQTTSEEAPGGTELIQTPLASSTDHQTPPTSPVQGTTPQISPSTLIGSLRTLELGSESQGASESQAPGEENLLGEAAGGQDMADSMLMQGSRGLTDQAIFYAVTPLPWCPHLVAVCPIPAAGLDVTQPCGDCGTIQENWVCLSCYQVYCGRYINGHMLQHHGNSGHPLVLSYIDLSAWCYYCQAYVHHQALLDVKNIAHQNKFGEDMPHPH

[4] = test system: 10326 NUT midline carcinoma cell line; test: 10326 cell viability (ATPLite); assay type: cell-based; conditions: Table P2; 48 hours incubation
Protocol: as §1

[5] = test system: HDACs 1-3; test: HDAC biochemical assay of P5-P12, summary statements
[6] = target: T3, HDAC3 (Homo sapiens, UniProt O15379); test: HDAC biochemical assay of P5-P12 (Table P1); conditions: Table P1
T3 construct: The recombinant, full-length HDAC protein (BPS Biosciences) was incubated; purchased BPS Biosciences

[7] = target: HDAC2 (Homo sapiens, UniProt Q92769); test: HDAC biochemical assay of P5-P12 (Table P1); design: The recombinant, full-length HDAC protein (BPS Biosciences) was incubated; purchased BPS Biosciences; conditions: Table P1
[8] = target: HDAC1 (Homo sapiens, UniProt Q13547); test: HDAC biochemical assay of P5-P12 (Table P1); design: The recombinant, full-length HDAC protein (BPS Biosciences) was incubated; purchased BPS Biosciences; conditions: Table P1
[9] = test system: human HDACs; test: HDAC biochemical assay (Example 16), summary statements over isoforms; conditions: all isoforms tested
Protocol: The inhibitory effect of compounds on deacetylase isoenzyme function was determined in vitro using an optimized homogenous assay performed in 384-well plate format. […] Data are analyzed on a plate-by-plate basis for the linear range of fluorescence over time. Data from the plate capture corresponding to the mid-linear range is imported into analytical software and annotated with well identity and compound concentration (Spotfire DecisionSite). Replicate experimental data from incubations with inhibitor are normalized to control, solvent-only wells and IC-50 is determined by logistic regression.
Thus, small-molecule inhibitors were arrayed at twelve-point dose-response (3-fold increments) in 384-well library plates and transferred by robotic pin device to replicate assay plates containing assay buffer under reducing conditions (TCEP 200 μM). A liquid handling device then transferred a tripeptide substrate terminating in acetyl-lysine and amide conjugated to 4-methyl-7-aminocoumarin (AMC), recombinant human histone deacetylase (BPS Bioscience, San Diego, Calif.), and recombinant human trypsin (Sigma-Aldrich, St. Louis, Mo.). […] Kinetic (fluorescence per unit time) and end-point (total fluorescence) data were captured by a multilabel plate reader. Replicate data were analyzed by curve-fit using logistic regression (Spotfire Decision-Site). […]

[10] = the molecule shown is the open-chain precursor, amide bond, 16-membered ring, 3 steps
[11] = test system: CNS cancer cell lines; conditions: for Percent of Cell Lines Impacted (%), LC50, CNS: five-dose
Text: (§2) All compounds submitted for screening were initially tested at a single high dose (10^-5 M) against the fill NCI 60 cell panel. Only compounds which satisfied pre-determined threshold inhibition criteria in a minimum number of cell lines progressed to a second round of testing utilizing a more comprehensive 5-dose inhibition assay. The threshold inhibition criteria for progression to the 5-dose assays were selected to efficiently capture compounds with anti-proliferative activity based on historical DTP screening data.
(§3) Concentrations for G150, IC50, TGI, and LC50 were calculated for all cell lines tested, and heat plots were prepared.

[12] = test system: NCI-60 cancer cell lines; conditions: five-dose; for Percent of Cell Lines Impacted (%), GI50: 50% Growth Inhibition; for Percent of Cell Lines Impacted (%), LC50: 50% Lethal Concentration reached; for Percent of Cell Lines Impacted (%), TGI / Total Impacted Cell Lines (n), TGI: Total Growth Inhibition; for Average Concentration (M), TGI: average over impacted cell lines
Text: as §2, §3

[13] = test system: melanoma cell lines; test: cells; conditions: read-out: Average Concentration (M), LC50, Melanoma
Text: as §2, §3

[14] = test system: colon cancer cell lines; test: cells; conditions: read-out: Average Concentration (M), LC50, Colon
Text: as §2, §3

[15] = test system: melanoma cell lines; conditions: for Percent of Cell Lines Impacted (%), LC50, Melanoma: five-dose
Text: as §2, §3

[16] = test system: NCI-60 cancer cell lines; test: cells
Text: as §2, §3

[17] = test system: colon cancer cell lines; conditions: for Percent of Cell Lines Impacted (%), LC50, Colon: five-dose
Text: as §2, §3

[18] = test system: CNS cancer cell lines; test: cells; conditions: read-out: Average Concentration (M), LC50, CNS
Text: as §2, §3

[19] = test system: renal cancer cell lines; conditions: for Percent of Cell Lines Impacted (%), LC50, Renal: five-dose
Text: as §2, §3

[20] = test system: ovarian cancer cell lines
Text: as §2, §3

[21] = read-out: Average Concentration (M), GI50

T3 sequence (O15379 whole entry): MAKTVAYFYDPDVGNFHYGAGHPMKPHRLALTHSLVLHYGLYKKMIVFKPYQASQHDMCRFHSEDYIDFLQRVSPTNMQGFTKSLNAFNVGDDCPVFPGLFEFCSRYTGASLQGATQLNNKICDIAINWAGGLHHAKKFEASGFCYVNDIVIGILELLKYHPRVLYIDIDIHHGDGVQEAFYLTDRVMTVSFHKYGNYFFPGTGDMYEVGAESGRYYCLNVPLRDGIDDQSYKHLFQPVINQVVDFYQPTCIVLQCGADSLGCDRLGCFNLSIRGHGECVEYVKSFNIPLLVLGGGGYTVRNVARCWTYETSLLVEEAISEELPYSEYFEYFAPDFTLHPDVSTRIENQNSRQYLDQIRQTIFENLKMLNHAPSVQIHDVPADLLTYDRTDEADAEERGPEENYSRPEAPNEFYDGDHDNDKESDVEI
T3 sequence (Q9Y618 395-489 partner limits assumed): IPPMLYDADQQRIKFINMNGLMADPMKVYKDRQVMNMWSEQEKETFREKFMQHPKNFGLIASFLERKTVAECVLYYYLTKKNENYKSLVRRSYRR
Sequence of HDAC2 (Q92769 whole entry): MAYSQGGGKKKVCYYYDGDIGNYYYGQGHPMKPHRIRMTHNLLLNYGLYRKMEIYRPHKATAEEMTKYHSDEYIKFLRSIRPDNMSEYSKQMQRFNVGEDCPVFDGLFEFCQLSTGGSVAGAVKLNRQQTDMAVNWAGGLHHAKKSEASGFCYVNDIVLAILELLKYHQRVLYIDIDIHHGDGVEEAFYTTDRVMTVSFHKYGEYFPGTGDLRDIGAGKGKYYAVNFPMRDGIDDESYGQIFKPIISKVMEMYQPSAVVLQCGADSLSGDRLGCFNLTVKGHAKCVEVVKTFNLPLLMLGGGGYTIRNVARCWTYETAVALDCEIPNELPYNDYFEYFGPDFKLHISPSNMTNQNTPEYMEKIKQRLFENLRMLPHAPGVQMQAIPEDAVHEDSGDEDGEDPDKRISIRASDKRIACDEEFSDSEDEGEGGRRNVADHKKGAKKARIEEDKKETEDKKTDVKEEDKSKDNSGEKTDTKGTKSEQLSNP
Sequence of HDAC1 (Q13547 whole entry, canonical isoform): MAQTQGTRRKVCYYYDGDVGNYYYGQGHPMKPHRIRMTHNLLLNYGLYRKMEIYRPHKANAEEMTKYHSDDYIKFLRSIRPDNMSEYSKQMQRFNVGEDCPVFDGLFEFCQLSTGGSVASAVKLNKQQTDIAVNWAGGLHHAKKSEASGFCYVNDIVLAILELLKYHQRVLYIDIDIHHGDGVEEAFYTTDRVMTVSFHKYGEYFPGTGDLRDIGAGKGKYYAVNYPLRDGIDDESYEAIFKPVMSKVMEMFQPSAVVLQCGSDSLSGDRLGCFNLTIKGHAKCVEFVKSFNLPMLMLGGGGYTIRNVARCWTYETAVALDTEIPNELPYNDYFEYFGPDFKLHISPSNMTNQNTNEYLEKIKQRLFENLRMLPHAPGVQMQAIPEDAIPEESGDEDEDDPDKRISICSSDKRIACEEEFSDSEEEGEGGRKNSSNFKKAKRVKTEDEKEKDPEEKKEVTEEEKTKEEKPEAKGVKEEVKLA

Compound: CC(C)[C@@H]1NC(=O)[C@]2(C)CSC(=N2)c2cccc(n2)CNC(=O)C[C@@H](/C=C/CCS)OC1=O [Compound P6, Depsipeptide Pyridyl “IN” Thiol]
IC50 [1]: 220 nM | IC50 [2]: 341 nM | IC50 [3]: 48.5 nM | IC50 [4]: 290 nM | IC50 range in words for HDACs 1-3 [5]: single digit nM range | IC50 [6]: 3.07 nM

IC50 [1]: 90 nM | IC50 [2]: 102 nM | IC50 [7]: 4.42 nM | IC50 [3]: 35.2 nM | IC50 [4]: 120 nM | IC50 [8]: 2.2 nM | IC50 range in words for HDACs 1-3 [5]: single digit nM range | IC50 [6]: 2.31 nM
Compound: CC(C)[C@@H]1NC(=O)[C@]2(C)CSC(=N2)c2ccnc(c2)CNC(=O)C[C@@H](/C=C/CCS)OC1=O [Compound P8, Depsipeptide Pyridyl “OUT” Thiol]

Compound: CC(C)[C@@H]1NC(=O)[C@]2(C)CSC(=N2)c2ccnc(c2)CNC(=O)C[C@@H](/C=C/CCS)NC1=O [Compound P12, Peptide Isostere Pyridyl “OUT” Thiol]
IC50 [2]: 1490 nM | IC50 [7]: 20.8 nM | IC50 [3]: 2850 nM | IC50 [8]: 13.2 nM | IC50 range in words for HDACs 1-3 [5]: double-digit nM range | IC50 [6]: 14.6 nM

Compound: CC(C)[C@H]1NC(=O)[C@@]2(C)CSC(=N2)c2csc(n2)CNC(=O)C[C@H](/C=C/CCS)OC1=O [Enantiomer (2), (−)-Largazole Thiol]
decrease in potency versus the natural product [9]: three orders of magnitude

Compound: CC(C)[C@@H]1NC(=O)[C@]2(C)CSC(=N2)c2csc(n2)CNC(=O)C[C@@H](/C=C/CCS)NC1=O [Largazole peptide isostere thiol]
IC50 [1]: 1740 nM | IC50 [2]: 255 nM | IC50 [4]: 11900 nM

Compound: COC(=O)C[C@@H](/C=C/CCSC(c1ccccc1)(c1ccccc1)c1ccccc1)NC(=O)[C@@H](NC(=O)[C@]1(C)CSC(c2cccc(CNC(=O)OC(C)(C)C)n2)=N1)C(C)C [Trityl Protected Peptide Isostere Pyridyl “IN” Macrocycle]
ring closure, isolated yield [10]: 33%

Compound: COC(=O)C[C@@H](/C=C/CCSC(c1ccccc1)(c1ccccc1)c1ccccc1)NC(=O)[C@@H](NC(=O)[C@]1(C)CSC(c2ccnc(CNC(=O)OC(C)(C)C)c2)=N1)C(C)C [Trityl Protected Peptide Isostere Pyridyl “OUT” Macrocycle]
ring closure, isolated yield ([10]; HATU/HOBt/DIEA, MeCN, 0.97 mM, […]): 32%

Compound: CCCCCCCC(=O)SCC/C=C/[C@@H]1CC(=O)NCc2cc(ccn2)C2=N[C@@](C)(CS2)C(=O)N[C@@H](C(C)C)C(=O)O1 [compound of formula A]
Total Impacted Cell Lines (n), LC50, CNS [11]: 1 | Percent of Cell Lines Impacted (%), LC50, CNS [11]: 20% | Percent of Cell Lines Impacted (%), GI50 [12]: 100% | Percent of Cell Lines Impacted (%), LC50 [12]: 16% | Percent of Cell Lines Impacted (%), TGI [12]: 56% | Total Impacted Cell Lines (n), TGI [12]: 32 | Average Concentration (M), TGI [12]: 8.49e-07 M | CC50 [13]: 2.02e-07 M | CC50 [14]: 1.48e-06 M | Total Impacted Cell Lines (n), LC50, Melanoma [15]: 3 | Percent of Cell Lines Impacted (%), LC50, Melanoma [15]: 38% | GI50 [16, 21]: 3.29e-08 M | GI50 ([16]; read-out: GI50 concentrations (M), order of magnitude): 1e-08 M | Total Impacted Cell Lines (n), LC50, Colon [17]: 3 | Percent of Cell Lines Impacted (%), LC50, Colon [17]: 43% | CC50 [18]: 1.38e-05 M | Total Impacted Cell Lines (n), LC50, Renal [19]: 2 | Percent of Cell Lines Impacted (%), LC50, Renal [19]: 25%

Compound: CCCCCCCC(=O)SCC/C=C/[C@@H]1CC(=O)NCc2nc(cs2)C2=N[C@@](C)(CS2)C(=O)N[C@@H](C(C)C)C(=O)N1 [compound of formula aa]
Total Impacted Cell Lines (n), LC50, CNS [11]: 2 | Percent of Cell Lines Impacted (%), LC50, CNS [11]: 33% | Percent of Cell Lines Impacted (%), GI50 [12]: 100% | Percent of Cell Lines Impacted (%), LC50 [12]: 17% | Percent of Cell Lines Impacted (%), TGI [12]: 64% | Total Impacted Cell Lines (n), TGI [12]: 37 | Average Concentration (M), TGI [12]: 1.31e-05 M | CC50 [13]: 6.52e-06 M | CC50 [14]: 9.45e-06 M | Total Impacted Cell Lines (n), LC50, Melanoma [15]: 2 | Percent of Cell Lines Impacted (%), LC50, Melanoma [15]: 25% | GI50 [16, 21]: 6.56e-07 M | Total Impacted Cell Lines (n), LC50, Ovarian [20]: 1 | Percent of Cell Lines Impacted (%), LC50, Ovarian ([20]; five-dose): 14% | Total Impacted Cell Lines (n), LC50, Colon [17]: 3 | Percent of Cell Lines Impacted (%), LC50, Colon [17]: 43% | CC50 [18]: 7.17e-06 M | Total Impacted Cell Lines (n), LC50, Renal [19]: 2 | Percent of Cell Lines Impacted (%), LC50, Renal [19]: 25%
